One data set is described as follows: in vitro. Conditions: hamster, Cytotoxicity (CC50).
The target of the next data set is FMDV 3C^pro (Foot-and-mouth disease virus, UniProt P03306). The data set can be described thus: cell-based.
The subject of another data set is FMDV. The data set can be described thus: organism not typed. In kind it is cell-based, Foot-and-mouth-disease virus serotype A (NP05).
[1] abbreviates: BHK-21, 0 h, read-out: Viral (EC50).
Setting [2] is: BHK-21, 2 h, read-out: Post-Viral (EC50).
Where [3] appears, read: BHK-21, read-out: Prophylaxis (EC50).
Setting [4] is: read-out: EC50 (low antiviral activities).

Read-outs that look alike come from different tables or passages of the source. Bounds are passed on as bounds.

These results are taken from article PMC8625466 (Viruses, 2021).

Chain of FMDV 3C^pro (P03306 1650-1862 limits assumed): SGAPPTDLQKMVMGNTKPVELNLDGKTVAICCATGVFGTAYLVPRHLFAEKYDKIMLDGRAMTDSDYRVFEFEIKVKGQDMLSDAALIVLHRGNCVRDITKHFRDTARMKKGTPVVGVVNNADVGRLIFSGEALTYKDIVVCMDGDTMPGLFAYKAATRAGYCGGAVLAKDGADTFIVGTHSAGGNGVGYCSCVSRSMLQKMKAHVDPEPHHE

Regarding `COc1cc(O)c2c(=O)cc(-c3ccc(O)c(O)c3)oc2c1` [7-O-Methylluteolin], the CC50 in “in vitro” was greater than 100 µM. Also, the IC50 against FMDV 3C^pro is greater than 200 µM. Further, the 50% effective concentration (EC50) with FMDV (setting [1]) is 75 to 100 µM; in the data set with FMDV (setting [2]), 75 to 100 µM; in the data set with FMDV (setting [3]), greater than 100 µM; in the data set with FMDV (setting [4]), 75 to 100 µM.
`O=c1cc(-c2ccc(O)cc2)oc2cc(O)cc(O)c12` [Apigenin] returned a CC50 in “in vitro” of 68.7 ± 4.1 µM. On FMDV 3C^pro, the IC50 was greater than 200 µM. For the same compound, the EC50 was 75 to 100 µM in the data set on FMDV (setting [1]), 75 to 100 µM in the data set with FMDV (setting [2]), greater than 100 µM in the data set on FMDV (setting [3]) and 75 to 100 µM in the data set with FMDV (setting [4]).
In the data set “in vitro”, `O=C(O)[C@H]1O[C@@H](Oc2cc3oc(-c4ccccc4)cc(=O)c3c(O)c2O)[C@H](O)[C@@H](O)[C@@H]1O` [Baicalin] displayed a CC50 greater than 100 µM.
Consider `COc1ccc(-c2coc3cc(O[C@@H]4O[C@H](CO)[C@@H](O)[C@H](O)[C@H]4O)ccc3c2=O)cc1O` [Calycosin 7-O-glucoside], for which the CC50 in the data set with BHK-21 cells was greater than 100 µM.
Compound `O=C/C=C/c1ccccc1` [Cinnamaldehyde] registered a CC50 in “in vitro” greater than 100 µM.
`COc1ccc(-c2cc(=O)c3c(O)cc(O[C@@H]4O[C@H](CO[C@@H]5O[C@@H](C)[C@H](O)[C@@H](O)[C@H]5O)[C@@H](O)[C@H](O)[C@H]4O)cc3o2)cc1O` [Diosmin] yielded a CC50 in “in vitro” greater than 100 µM.
In the data set on BHK-21 cells, `O=C(O[C@@H]1Cc2c(O)cc(O)cc2O[C@@H]1c1cc(O)c(O)c(O)c1)c1cc(O)c(O)c(O)c1` [EGCG] registered a CC50 greater than 100 µM.
In “in vitro”, `COc1cc(C2Oc3cc([C@H]4Oc5cc(O)cc(O)c5C(=O)[C@@H]4O)ccc3OC2CO)ccc1O` (stereo partly drawn) [Flavobin] came in with a CC50 of 45.1 µM.
The compound `COc1ccc([C@@H]2CC(=O)c3c(O)cc(O[C@@H]4O[C@H](CO[C@@H]5O[C@@H](C)[C@H](O)[C@@H](O)[C@H]5O)[C@@H](O)[C@H](O)[C@H]4O)cc3O2)cc1O` [Hesperidin] registered a CC50 in the data set with BHK-21 cells greater than 100 µM.
For the compound `COc1ccc(-c2cc(=O)c3c(O)cc(O)c(-c4cc(-c5cc(=O)c6c(O)cc(O)cc6o5)ccc4OC)c3o2)cc1` [Isoginkgetin], the CC50 in the data set “in vitro” was greater than 100 µM. At FMDV 3C^pro, the “Fold increase of the FLuc over Renilla luciferase (Rluc) ratio” value (“Fold increase of the FLuc … (Rluc) ratio” below) is listed as 2.65 fold. Inhibition against FMDV 3C^pro was half-maximal at 39.03 ± 0.05 µM (IC50). Besides, the figures for the EC50 with FMDV (setting [1]), with FMDV (setting [2]) and in the data set on FMDV (setting [3]) were 2.01 ± 0.07 µM, 1.93 ± 0.21 µM and 6.76 ± 0.8 µM, respectively.
The compound `O=C(COc1cc(O)c2c(=O)cc(-c3ccccc3)oc2c1)c1ccc(F)cc1` [Kaempferol derivative, 7-[2-(4-Fluorophenyl)-2-oxoethoxy]-5-hydroxy-2-phenyl-4H-chromen-4-one] came in with a CC50 in “in vitro” greater than 100 µM.
On to `COc1ccc(-c2cc(=O)c3c(O)cc(O[C@@H]4O[C@H](CO[C@@H]5O[C@@H](C)[C@H](O)[C@@H](O)[C@H]5O)[C@@H](O)[C@H](O)[C@H]4O)cc3o2)cc1` [Linarin], for which the CC50 in the data set with BHK-21 cells was greater than 100 µM.
`O=C(/C=C/c1ccc(O)c2c1[C@H](C(=O)O)[C@@H](c1ccc(O)c(O)c1)O2)O[C@H](Cc1ccc(O)c(O)c1)C(=O)O` [Lithospermic acid] showed a CC50 in the data set “in vitro” greater than 100 µM.
In the data set “in vitro”, `O=c1cc(-c2ccc(O)c(O)c2)oc2cc(O)cc(O)c12` [Luteolin] registered a CC50 greater than 100 µM. For the same compound, on FMDV 3C^pro, the “Fold increase of the FLuc … (Rluc) ratio” value turned out to be 1.86 fold. At FMDV 3C^pro, this compound had an IC50 of 176.7 ± 0.05 µM. Also, the EC50 is 9.73 ± 0.94 µM in the data set on FMDV (setting [1]), 10 ± 0.98 µM in the data set with FMDV (setting [2]) and 25.8 ± 1.29 µM with FMDV (setting [3]).
The compound `O=c1cc(-c2ccccc2)oc2cc(O[C@@H]3O[C@H](CO[C@@H]4O[C@H](CO)[C@@H](O)[C@H](O)[C@H]4O)[C@@H](O)[C@H](O)[C@H]3O)c(O)c(O)c12` [Oroxin B] gave a CC50 with BHK-21 cells of 85.9 ± 7.4 µM.
For `C[C@@H]1O[C@@H](Oc2cc(O)c3c(=O)c(O)c(-c4ccc(O)c(O)c4)oc3c2)[C@H](O)[C@H](O)[C@H]1O` [Quercetin 7-rhamnoside], the CC50 with BHK-21 cells is greater than 100 µM. The IC50 on FMDV 3C^pro (read-out: IC50, cell-based protease assay) is greater than 200 µM. The EC50 in the data set with FMDV (read-out: Post-Viral (EC50)) was 75 to 100 µM; in the data set on FMDV (read-out: Prophylaxis (EC50)), greater than 100 µM; with FMDV (read-out: Viral (EC50)), greater than 100 µM.
Compound `NC(=O)c1ncn([C@@H]2O[C@H](CO)[C@@H](O)[C@H]2O)n1` [Ribavirin, reference compound] had a CC50 in “in vitro” greater than 100 µM. Moreover, the EC50 in the data set with FMDV (setting [1]) came to 41.8 ± 1.58 µM; in the data set with FMDV (setting [2]) it was 133 ± 2.03 µM; in the data set on FMDV (setting [3]), 283.9 ± 2.3 µM.
As to `CCOC(=O)/C=C/[C@H](C[C@@H]1CCNC1=O)NC(=O)[C@@H](CC(=O)[C@@H](NC(=O)c1cc(C)on1)C(C)C)Cc1ccc(F)cc1` [Rupintrivir, reference compound], the CC50 in “in vitro” is greater than 100 µM. The “Fold increase of the FLuc … (Rluc) ratio” value on FMDV 3C^pro was found to be 4.27 fold. At FMDV 3C^pro, this compound showed an IC50 of 13.5 ± 0.19 µM. The EC50 in the data set on FMDV (setting [1]) came out at 1.99 ± 0.01 µM; in the data set on FMDV (setting [2]), 1.69 ± 0.19 µM; in the data set on FMDV (setting [3]), 11.8 ± 1.03 µM.
Regarding `O=C(/C=C/c1ccc(O)cc1)OC[C@H]1O[C@@H](Oc2c(-c3ccc(O)cc3)oc3cc(O)cc(O)c3c2=O)[C@H](O)[C@@H](O)[C@@H]1O` [Tiliroside], in “in vitro”, the CC50 was greater than 100 µM.
Take Epicatechin-3-gallate: the midpoint of cytotoxicity in the data set on BHK-21 cells, the CC50, lay at 77 ± 8.85 µM.
The compound Hyperoxide had a CC50 with BHK-21 cells greater than 100 µM.
For Methyl Hesperidin,(S), the CC50 in the data set with BHK-21 cells was greater than 100 µM.

As usually defined, the CC50 is the concentration at which the toxic effect on the cells reaches its halfway point. The term IC50 denotes the concentration needed to halve the response being measured. In general, EC50 refers to the concentration needed to bring the measured effect to its halfway point.
